Tested on: glioblastoma brain cancer cell line LN-229
Test: Cytotoxicity assay (CCK8 viability)
Assay type: cell-based
Details: Homo sapiens, LN-229 cells, 48 hrs
Description: Cytoxocity assay: Cells are seeded on a 96 well polystyrene plate in full serum media at a density of 75,000 cells per milliliter, 100 μL per well. Plates are incubated at 37° C. and 5% CO2 for 24 hours to allow cell attachment. Drug solutions are prepared in DMSO at 100× concentration and mixed 1:100 in 1% FBS media to yield the desired concentration. Drug-media mixtures are vortexed immediately prior to administration to cells. […] of Cell Counting Kit 8 (CCK8, Dojindo# CK04-11) is added to each well to colormetrically assess viability. After 2-4 hours of incubation with the CCK8 dye, absorbance is read at 450 nm by a BioTek Synergy 2 plate reader.
The cytotoxicity of selected compounds against the glioblastoma brain cancer cell line LN-229 is depicted in Table 1.

Compound: CCCCCCC(C)(C)c1cc(O)c2c(-c3ccccc3)coc2n1 [Compound 4c, 6-(2-Methyloctan-2-yl)-3-phenylfuro[2,3-b]pyridin-4-ol]
- EC50: 33.6 µM

Source: patent US8431595B2, “Furanopyridine cannabinoid compounds and related methods of use” (The University of Tennessee Research Foundation, priority 2009, dated 2013)
